The results in this text go back to PubChem BioAssay (NCI).

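Five concentrations, 48 hours, 96-well plates. GI50: concentration for 50% inhibition of growth. TGI: total growth inhibition.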

What all share (experiment): NCI anticancer screen, dose series, 48 h
Experiment [1] has as its system A549 NSCLC.
The test system of experiment [2] is MCF7 breast.
Experiment [3] deals with MDA-MB-435.
Experiment [4] has as its system NCI-H460 lung.
Experiment [5] concerns OVCAR-4 ovarian.
For experiment [6], the system named is PC-3 prostate.
The test system of experiment [7] is SK-MEL-28 melanoma.
For experiment [8], the system named is SK-OV-3 ovarian.
Experiment [9] concerns SN12C renal.
The subject of experiment [10] is TK-10 renal.

Turning to `CO[C@H]1C[C@H](O[C@H]2CC[C@]3(C=O)[C@H]4CC[C@]5(C)[C@@H](C6=CC(=O)OC6)CC[C@]5(O)[C@@H]4CC[C@]3(O)C2)O[C@H](C)[C@H]1O`, the TGI in experiment [1] amounted to 0.198 µM; in experiment [2], 13.1 µM; in [3], 1.47 µM; in experiment [4], 0.176 µM; in experiment [5], 0.341 µM; in experiment [6], 1.04 µM. Further, the TGI in [7] turned out to be 5.37 µM; in experiment [8], 0.815 µM; in [9], 0.201 µM; in [10], 0.758 µM.

Take `O=C(Nc1cccc(-n2cc(-c3ccncc3)c(-c3ccc(O)c(Cl)c3)n2)c1)c1cccc(C(F)(F)F)c1`: the GI50 is 2.5 µM in experiment [1]; 2.97 µM in experiment [2]; 3.57 µM in [3]; 3.42 µM in experiment [4]; 5.33 µM in [5]; 3.62 µM in experiment [6]. In addition, the GI50 in experiment [7] is 4.63 µM; in experiment [8] it was 99.1 µM; in experiment [9], 6.44 µM; in experiment [10], 7.18 µM. In addition, the TGI in [1], in experiment [2], in experiment [3], in experiment [4], in [5] and in experiment [6] was over 100 µM throughout. Besides, the TGI in experiment [7], in [8], in experiment [9] and in experiment [10] was over 100 µM in each case.

On to `O=[N+]([O-])c1cccnc1-n1cnc2ccccc21`, for which the TGI in experiment [1], in [2], in experiment [3], in experiment [4], in [5] and in [6] was over 100 µM in each case. Moreover, the TGI in experiment [7], in experiment [8] and in experiment [10] was over 100 µM throughout.

On to `O=C1c2ccccc2-c2[nH]c3cn[nH]c(=O)c3c21`, for which the TGI in experiment [1], in [2], in experiment [3], in experiment [4], in [5] and in experiment [6] was over 100 µM each time. Moreover, the TGI in experiment [8], in [9] and in [10] was over 100 µM throughout.

For `Nc1nc(Cl)cc(NCC2(O)CCCC2)n1`, the TGI in experiment [1], in experiment [2], in experiment [3], in [4], in experiment [5] and in experiment [6] was over 100 µM throughout. Also, the TGI in experiment [7], in [8], in experiment [9] and in experiment [10] was over 100 µM each time.

For `NS(=O)(=O)c1ccc(NNc2c3ccccc3nc3c(C(=O)Nc4ccc(S(=O)(=O)Nc5ncccn5)cc4)cccc23)cc1`, the TGI in experiment [1], in experiment [2], in [3], in experiment [4], in [5] and in [6] was over 25 µM throughout. Also, the TGI in [7], in experiment [8], in experiment [9] and in experiment [10] was over 25 µM each time.

For `CCN(CC)c1ccc2cc(-c3nc4ccccc4c(=O)[nH]3)c(=N)oc2c1`, the TGI in experiment [1], in experiment [2], in experiment [3], in [4], in experiment [5] and in experiment [6] was over 100 µM each time. Besides, the TGI in experiment [7], in experiment [8], in experiment [9] and in experiment [10] was over 100 µM throughout.

With `CC1OC2OC3C(OCC(O)C3O)OC(=O)[C@]34CCC(C)(C)CC3C3=CCC5[C@@]6(C)C[C@H](O)[C@H](OC7OC(CO)C(O)C(O)C7OC7OCC(OC(=O)CC(C)(O)CC(=O)OC1C(OC1OC(CO)C(O)C(O)C1O)C2O)C(O)C7O)[C@@](C)(CO)C6CC[C@@]5(C)[C@]3(C)CC4` (stereo partly drawn), the TGI amounted to 13.5 µM in experiment [1]; 23.6 µM in experiment [2]; 11.4 µM in [3]; 22.7 µM in experiment [4]; 17.1 µM in [5]; 16.9 µM in experiment [6]. The TGI came to 6.22 µM in experiment [7], 22.8 µM in experiment [8], 23.3 µM in [9] and 21.1 µM in experiment [10].

For `CN1C(=O)C(O)CC1c1cccc(C(F)(F)F)c1` (stereo not drawn), the TGI in [1], in experiment [2], in experiment [3], in [4], in experiment [5] and in [6] was over 100 µM throughout. Further, the TGI in experiment [7], in [8], in [9] and in experiment [10] was over 100 µM in each case.

Regarding `CSc1ccc(/C=C2\N=C(c3ccccc3)N(/N=C/c3cc4cc(C)ccc4nc3Cl)C2=O)cc1`, the TGI worked out at 59 µM in experiment [1]; 43.2 µM in experiment [2]; 26.1 µM in experiment [3]; 57.7 µM in [4]; 39.3 µM in experiment [5]; 38 µM in experiment [6]. The TGI was determined as 37.6 µM in experiment [7], 66.1 µM in [8], 35.6 µM in [9] and 33.5 µM in experiment [10].

As to `O=C(c1ccco1)N(C(=S)OC12CC3CC(CC(C3)C1)C2)c1ccccc1`, the TGI in experiment [1] is over 100 µM; in experiment [2], 85.3 µM; in [3] it was 90.3 µM; in [4] it was over 100 µM; in experiment [5] it was over 100 µM; in [6], 60.3 µM. For the same compound, the TGI in experiment [7] is over 100 µM; in [8], over 100 µM; in experiment [9], 62.8 µM; in experiment [10], over 100 µM.

As for `COc1ccc2nc3n(c2c1)CCc1cc(OC)c(OC)cc1-3`, the TGI in experiment [1], in experiment [2], in experiment [3], in [4], in [5] and in experiment [6] was over 100 µM each time. Besides, the TGI in experiment [7], in experiment [8], in [9] and in experiment [10] was over 100 µM throughout.
